In patent publication US11214835B1, “Methods and compositions for diagnosis and management of neurodegerative diseases” (UNIVERSITY OF SOUTH FLORIDA, priority 2017, dated 2022):

Columns and labels:
GAS5 transcript = assay: RNA-EMSA (REMSA) of compound binding to biotin-labeled GAS5 transcript; details: 0.1 nM biotin-labeled GAS5, 10 nM compound, yeast tRNA, 20 min at room temperature
Protocol: RNA-EMSA was performed as previously described (see e.g. Apostolatos, H., Apostolatos, A., Vickers, T., Watson, J. E., Song, S., Vale, F., Cooper, D. R., Sanchez-Ramos, J., and Patel, N. A. (2010) Vitamin A metabolite, all-trans-retinoic acid, mediates alternative splicing of protein kinase C deltaVIII (PKCdeltaVIII) isoform via splicing factor SC35. J Biol Chem 285, 25987-25995 and Patel, R. S., Carter, G., Cooper, D. R., Apostolatos, H., and Patel, N. A. (2014) Transformer 2beta homolog (Drosophila) (TRA2B) regulates protein kinase C deltaI (PKCdeltaI) splice variant expression during 3T3L1 preadipocyte cell cycle. J Biol Chem 289, 31662-31672
Briefly, GAS5 was cloned in TOPO vector which has the T7 promoter. […] 0.1 nM of transcribed, biotin-labeled GAS5 was incubated with 10 nM G5-1397 in presence of 10U yeast tRNA and 10 units of RNase inhibitor in a final volume of 10 μl of RNA shift buffer for 20 min at room temperature and detected using Biotin Chromogenic Detection kit (ThermoFisher). […]
As the compound(s) were designed to bind to GAS5 such that it would disrupt binding to UPF1, the compound(s) ability to bind to GAS5 was examined. […] Next, it was evaluated whether NPG567 could stabilize GAS5 in HT22 cells over-expressing UPF1 (from Addgene). […] GAS5 levels were measured using SYBR Green qPCR. […]

GAS5 [1] = assay: GAS5 levels in DM adipocytes by SYBR Green qPCR; assay type: cell-based, human; details: 20 nM, 24 hours
Protocol: DM adipocytes were treated with G5-1397 (20 nM) for about 24 hours. GAS5 levels were measured using SYBR Green qPCR.
Depletion of GAS5 decreases glucose uptake: Adipose tissue is the primary target for insulin-mediated glucose uptake. […] To maintain reproducibility over a larger number of experiments, adipose stem cells derived from normal or diabetic patients were purchased from Zenbio (BMI 20-24, Nondiabetic HbA1C 5.9 (hereafter referred as NDM); T2DM HbA1c 8.5 (hereafter referred as DM)). The adipose stem cells (ASC) were differentiated in vitro to mature adipocytes and used in experiments. GAS5 siRNA (10 nM, Ambion 332778, validated; scrambled siRNA as control) was transfected in NDM pre-adipocytes for 48 h, differentiated to mature NDM adipocytes for 8 days and knockdown confirmed by GAS5 SYBR Green qPCR. We determined the effect of GAS5 depletion on glucose uptake by NDM adipocytes. Cells were serum starved, 10 nM insulin was added to cells for 30 minutes and [^3H]-deoxy-2-D-Glucose uptake was measured. Results indicated a decrease in glucose uptake in GAS5 depleted NDM adipocytes ***p<0.001, highly significant using two-tailed students t-test.
Compound NPG5-C86 can increase GAS5 levels in diabetic adipocytes: Next, it was evaluated whether NPG5-C86 could stabilize GAS5 in diabetic adipocytes. […] GAS5 levels were measured using SYBR Green qPCR.

DM adipocytes = assay: Cell viability / toxicity in DM adipocytes; assay type: cell-based, human; details: 20 nM, 24 hours
HT22 cells = assay: Toxicity of side-chain derivatives to HT22 cells (preliminary data)
C57BL/6 mice = assay: Intranasal administration to C57BL/6 mice: brain uptake and toxicity; assay type: in vivo, mouse; details: 10 nM in 10 μl
Protocol: Brain tissue was harvested after about 48 h.
(§1) Separately, NPG567 or other compounds can be administered by intranasal delivery (APP/PS1 beginning at either 6 months of age (preventive) or 12 months of age (therapeutic); dose repeated alternate days; Tg4510 beginning at either 3 months of age (preventive) or 8 months of age (therapeutic); alternate days. See FIG. 25B for a schematic of the experimental protocol. The treatment efficacy for the two modes of delivery at timeframes as shown in FIGS. 25A and 25B and described herein. Intranasal delivery is a noninvasive method that bypasses the blood-brain barrier and delivers the drug to the brain and the spinal cord, thereby avoiding any systemic side effects. […] Brain tissue was harvested after about 48 h.

GAS5 [2] = assay: Hippocampal GAS5 levels after intranasal administration to C57BL/6 mice; assay type: in vivo, mouse; details: 10 nM in 10 μl, about 48 h
Text: as §1

GAS5 [3] = assay: Binding of side-chain derivatives to GAS5 (preliminary data)
GAS5 [4] = assay: Uptake and GAS5 levels in primary neuronal cells (NC) by qPCR; assay type: cell-based, mouse; details: 10 nM
NEAT1, MALAT1 = assay: Levels of other lncRNAs in neurons by qPCR (specificity); assay type: cell-based, mouse

SMILES | binding to GAS5 transcript in RNA-EMSA (GAS5 transcript) | GAS5 levels in DM adipocytes (GAS5 [1]) | cell toxicity in DM adipocytes (DM adipocytes) | toxicity to HT22 cells (HT22 cells) | toxicity to the animals (C57BL/6 mice; C57BL/6 mice) | blood-brain barrier crossing and brain uptake (C57BL/6 mice; fluorescein-labeled, 14 week C57BL/6 mice, brain harvested after about 48 h) | GAS5 levels in the hippocampus (GAS5 [2]) | binding to GAS5 (GAS5 [3]) | uptake by NC (GAS5 [4]; primary neuronal cells) | GAS5 levels in NC (GAS5 [4]; qPCR, control set as reference) | levels of other lncRNAs NEAT1, MALAT1 present in neurons (NEAT1, MALAT1; 10 nM, NC) | specificity (NEAT1, MALAT1; in neurons)
CC(C)C[C@H]1CN(C(=O)CC2CC2)CC(=O)N[C@@H](CCCCN)CN(C(=O)CCc2ccccc2)CC(=O)N[C@@H](Cc2ccccc2)CN(CC(N)=O)C(=O)CCSCc2ccc(cc2)C(=O)N[C@@H](Cc2ccccc2)CN(C(=O)CC2CC2)CC(=O)N1 [Formula G5-1397] | bound to GAS5 transcript | substantially increases GAS5 levels | without causing cell toxicity | – | – | – | – | – | – | – | – | –
NCCCC[C@H]1CN(C(=O)CCc2ccccc2)CC(=O)N[C@@H](CCC(=O)O)CN(CC(N)=O)C(=O)CCSCc2ccc(cc2)C(=O)N[C@@H](CCC(=O)O)CN(C(=O)CCC(=O)O)CC(=O)N[C@@H](CCCCN)CN(C(=O)CCCN)CC(=O)N1 [NPG567] | can bind to GAS5 transcript | – | – | not toxic to HT22 cells | not toxic to the animals | crossed the blood-brain barrier and taken up by the brain | increased GAS5 levels in the hippocampus | bound efficiently to GAS5 | efficiently taken up by NC | increase GAS5 | did not affect | shows specificity
